Data reported in patent US5554644A, “Tachykinin (NK2) antagonists” (Warner-Lambert Company, priority 1994, dated 1996).

How the values were obtained:
[1] = target: T1, NK2 receptor (Mesocricetus auratus, UniProt P51144); assay: NK2 receptor binding: binding of [^125 I]-iodohistidyl neurokinin A (0.1 nM) to hamster urinary bladder membranes
T1 construct: to hamster urinary bladder membranes; from tissue; host or cells: hamster urinary bladder membranes
T1 sequence (P51144 1-384): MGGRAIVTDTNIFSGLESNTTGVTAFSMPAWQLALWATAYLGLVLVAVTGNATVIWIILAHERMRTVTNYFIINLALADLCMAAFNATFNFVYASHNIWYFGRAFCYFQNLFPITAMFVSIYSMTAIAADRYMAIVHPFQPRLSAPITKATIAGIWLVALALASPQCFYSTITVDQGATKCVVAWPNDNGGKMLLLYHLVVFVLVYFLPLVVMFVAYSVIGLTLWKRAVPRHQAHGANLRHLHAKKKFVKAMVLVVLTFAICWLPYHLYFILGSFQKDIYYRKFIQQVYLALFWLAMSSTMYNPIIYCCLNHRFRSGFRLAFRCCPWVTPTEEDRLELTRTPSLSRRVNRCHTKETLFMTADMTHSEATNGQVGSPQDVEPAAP
Experimental: Some of the compounds of the invention were evaluated in tachykinin binding assays.
For the NK2 receptor-measurement of the binding of [^125 I]-iodohistidyl neurokinin A (0.1 nM) to hamster urinary bladder membranes. See Buck and Shatzer, Life Sci., 42:2701 (1988).

[2] = system: NK1 receptor; settings: cited from earlier work; for antagonists at the NK1 receptor: nonpeptide antagonists
[3] = system: NK2 receptors; settings: cited from earlier work

COc1cccc(COC(=O)NC(Cc2c[nH]c3ccccc23)C(=O)NC(C)(Cc2ccccc2)C(O)CCCO)c1OC (single isomer, unassigned) [Compound XXI, Carbamic acid, [2-[[2,5-dihydroxy-1-methyl-1-(phenylmethyl)pentyl]amino]-1-(1H-indol-3-ylmethyl)-2-oxoethyl]-, (2,3-dimethoxyphenyl)methyl ester]
IC50 [1]: 330 nM

COc1ccccc1CN[C@H]1C2CCN(CC2)[C@H]1C(c1ccccc1)c1ccccc1 [CP-96,345]
antagonists at the NK1 receptor [2]: antagonists at the NK1 receptor

COc1cccc(COC(=O)NC(Cc2c[nH]c3ccccc23)C(=O)NC(C)(Cc2ccccc2)C(O)CCCO)c1OC (single isomer, unassigned) [Compound XX, Carbamic acid, [2-[[2,5-dihydroxy-1-methyl-1-(phenylmethyl)pentyl]amino]-1-(1H-indol-3-ylmethyl)-2-oxoethyl]-, (2,3-dimethoxyphenyl)methyl ester]
IC50 [1]: 360 nM

substance-P
affinity for NK1 receptors [2]: highest affinity for NK1 receptors

COc1cccc(COC(=O)N[C@@H](Cc2c[nH]c3ccccc23)C(=O)N[C@@](C)(Cc2ccccc2)C(=O)CCCO)c1OC [XXVI, Carbamic acid, [2-[[5-hydroxy-1-methyl-2-oxo-1-(phenylmethyl)pentyl]amino]-1-(1H-indol-3-ylmethyl)-2-oxoethyl]-, (2,3-dimethoxyphenyl)methyl ester]
IC50 [1]: 22 nM

COc1cccc(COC(=O)N[C@@H](Cc2c[nH]c3ccccc23)C(=O)N[C@](C)(COCCO)Cc2ccccc2)c1OC [Compound XII, Carbamic acid, [2-[[1-[(2-hydroxyethoxy)methyl]-1-methyl-2-phenylethyl]amino]-1-(1H-indol-3-ylmethyl)-2-oxoethyl]-, (2,3-dimethoxyphenyl)methyl ester, [S-(R*, R*)]-.]
IC50 [1]: 250 nM

COc1ccccc1CC(=N)N1C[C@@H]2C(=O)CCC(c3ccccc3)(c3ccccc3)[C@@H]2C1 [RP 67580]
antagonists at the NK1 receptor [2]: antagonists at the NK1 receptor

COc1cccc(COC(=O)N[C@@H](Cc2c[nH]c3ccccc23)C(=O)N[C@@](C)(Cc2ccccc2)C(=O)N(C)CCO)c1OC [Compound VII, L-Phenylalaninamide, N-[[(2,3-dimethoxyphenyl)methoxy]-carbonyl]-L-tryptophyl-N-(2-hydroxyethyl)-N,α-dimethyl]
IC50 [1]: > 10000 nM

COc1cccc(COC(=O)N[C@@H](Cc2c[nH]c3ccccc23)C(=O)N[C@@](C)(Cc2ccccc2)C(=O)OCCO)c1OC [Compound IV, L-Phenylalanine, N-[N-[[(2,3-dimethoxyphenyl)methoxy]carbonyl]L-tryptophyl]-α-methyl- , 2-hydroxyethyl ester]
IC50 [1]: 150 nM

CC(=O)NC1(c2ccccc2)CCN(CC[C@H](CN(C)C(=O)c2ccccc2)c2ccc(Cl)c(Cl)c2)CC1 [SR 48969]
affinity and selectivity for NK2 receptors [3]: high affinity and selectivity for NK2 receptors
